# From US20130236527A1, “LICORICE LOLLIPOP THAT INHIBITS DENTAL CARIES FORMATION” (INTELLIHERB, LLC, priority 2008, published 2013)
# Key:
# [1] = tested on: S. mutans; test: anti-S. mutans bioactivity examination of extract batches; type: cell-based, Streptococcus mutans
# Text: In addition to chemical analysis, all batches, or statistically relevant samples of continuous production processes (e.g., 1/3600 candies; or 1/5000 candies; or 1/10,000 candies or the like) or statistically relevant samples of candy production batches (e.g., 1/10 batches; or 1/20 batches; or 1/50 batches), are examined for bioactivity. While the pure compound of glycyrrhizol A has anti-S. mutans activity at 1 microgram per ml, the mixed compound usually has anti-S. mutans activity at 10-30 microgram per ml.
# [2] = tested on: bacterial adherence; test: inhibition of bacterial adherence / dental caries formation
Compound,anti-S. mutans activity at (concentration) [1] [microgram per ml],inhibition of dental caries formation by inhibiting bacterial adherence [2]
COc1c(CC=C(C)C)c(O)cc2c1-c1oc3cc(O)c(CC=C(C)C)cc3c1CO2 [Glycyrrhizol A],1,–
CC1(C)[C@@H](O[C@H]2O[C@H](C(=O)O)[C@@H](O)[C@H](O)[C@H]2O[C@@H]2O[C@H](C(=O)O)[C@@H](O)[C@H](O)[C@H]2O)CC[C@]2(C)[C@H]3C(=O)C=C4[C@@H]5C[C@@](C)(C(=O)O)CC[C@]5(C)CC[C@@]4(C)[C@]3(C)CC[C@@H]12 [glycyrrhizin],–,can inhibit formation of dental caries by inhibiting bacterial adherence
